Laboratory results taken from a melting point compilation (Tetko et al.; mined from patent text by program, amines drawn as free bases though some values may be those of a salt).

First: COc1cc(Nc2c(C#N)cnc3cc(-c4cccc(CCN5CCOCC5)c4)c(OC)cc23)c(Cl)cc1Cl
Second: CCCC(=O)c1cnc2c(C)cccc2c1Nc1ccc(Cl)cc1Cl
The melting point of the first is higher: 193 to 195 °C for the first, 169 to 170 °C for the second.

First: COc1cnccc1C#N
Second: COc1ccc(C=C(C#N)C(N)=O)c([N+](=O)[O-])c1OC
The melting point of the first is lower: 66 to 67 °C for the first, 194 to 195 °C for the second.

First: Cc1cc(C)n(-c2ccc(OC=C3C=CC=CC3n3nnn(C)c3=O)c(Cl)c2)n1 (centres undefined)
Second: COc1ccc(-n2nc(Sc3cc(Cl)cc(Cl)c3)c(C)c(C#N)c2=O)cc1
The melting point of the first is lower: 122 to 124 °C for the first, 195 to 197 °C for the second.

First: CCc1cn2ccccc2c1S(=O)(=O)c1ccc(O)cc1
Second: COc1ccc(S(=O)(=O)Nc2cccc3c2N(C)c2ccccc2O3)cc1
The melting point of the first is higher: 204 °C for the first, 151 to 153 °C for the second.

Compared with COC(=O)c1nn(C)nc1CO, COC(=O)c1nc(C2CC2)nc(SC)c1Cl is lower in melting point: 112 to 113 °C for the first, 74 to 75 °C for the second.

Compared with CCCc1nc2ccccc2n1Cc1ccc(-c2ccccc2-c2nnn[nH]2)nc1, CCCc1nc(Br)c(C(C)(O)C(=O)O)n1Cc1ccc(-c2ccccc2S(=O)(=O)NC(=O)NCc2ccccc2)cc1 (centres undefined) is lower in melting point: 240 to 241 °C for the first, 153 °C for the second.

First: COC(=O)CCCc1cc2nc(C(F)(F)F)ccc2n1S(=O)(=O)c1cccc(OC(F)(F)F)c1
Second: COc1cccc(S(=O)(=O)N2c3cc(F)ccc3-c3ccc(F)cc3C2C)c1 (centres undefined)
The melting point of the first is lower: 72 °C for the first, 147 to 149 °C for the second.

First: COC(=O)COc1ccc(C(C)=O)cc1C
Second: CCSN(C)C(=O)Nc1ccc(OC)c(Cl)c1
The melting point of the first is lower: 51 to 53 °C for the first, 60 °C for the second.

First: O=C(O)c1ccc(-c2ccc(-c3ccc(Cl)cc3)s2)cc1
Second: O=C(O)c1ccc(C2(F)CC2c2ccc(Cl)cc2)cc1 (centres undefined)
The melting point of the first is higher: 285 to 286 °C for the first, 204 °C for the second.

First: COC(=O)C(Cc1cc(Br)c(O)c(Br)c1)NC(=O)C(F)(F)F (centres undefined)
Second: COC(=O)c1ccc2ccc(NC(=O)OC(C)(C)C)c(Br)c2c1
The melting point of the first is lower: 136 to 137 °C for the first, 137 to 140 °C for the second.

First: CNC(C(=O)O)c1ccc(Cl)cc1 (centres undefined)
Second: Cc1ccc2[nH]c(C(=O)OC(C)C)c(Sc3ccc(Cl)cc3)c2c1
The melting point of the first is higher: 208 to 213 °C for the first, 172 to 174 °C for the second.

First: Nc1ncnc2nsnc12
Second: O[C@H]1[C@H](O)CS[C@H]1n1cnc2c(Cl)ncnc21
The melting point of the first is higher: 247 to 249 °C for the first, 192 to 193 °C for the second.

First: COc1ccc(/C=C/C(=O)c2ccc(CC3SC(=O)NC3=O)cc2)cc1 (centres undefined)
Second: CCOC(=O)c1ccc(CC(=O)Nc2csc3nc(C(=O)NCc4cccc(OC)c4)[nH]c(=O)c23)cc1
The melting point of the first is lower: 177 to 180 °C for the first, 218 to 219 °C for the second.

First: O=c1cc(C2CCCC2)oc2ccc(OCCCCCCCl)cc12
Second: CCOCCCOc1ccc2c(c1)C(N(C)S(C)(=O)=O)CC(C)(C)O2 (centres undefined)
The melting point of the first is higher: 125 to 126 °C for the first, 61 to 63 °C for the second.

First: Cc1nc2c(N)nc3c(c2n1CCCCCS(C)(=O)=O)CCCC3
Second: Cc1cc(NC(=O)C(=O)N2CCCCC2)cc(C)c1S(=O)(=O)C[N+](=O)[O-]
The melting point of the first is higher: 172 to 174 °C for the first, 169 to 170 °C for the second.

Compared with Cc1c(SCCN2CCOCC2)ccnc1CSc1nc2ccccc2n1C(=O)N(C)C, C[C@@H]1OCCN(c2cc(N3CCOCC3)nc(-n3c(C(F)F)nc4ccccc43)n2)[C@@H]1C (relative stereo) is higher in melting point: 117 to 119 °C for the first, 167 to 169 °C for the second.

Compared with CCOC(=O)N1CCc2c(nc3ccccc3c2C)C(Cl)C1 (centres undefined), CCOC(=O)c1ccc(N2CCCC2=O)cc1 is lower in melting point: 131 °C for the first, 94 to 95 °C for the second.

Compared with CCOC(=O)Cc1ccc(-c2nc(COc3ccc(COc4nn(-c5ccccc5)cc4/C=C/c4csc(C)n4)cc3OC)c(C)o2)cc1, Cc1oc(-c2ccccc2)nc1COc1ccc(COc2ncccc2CO)cc1 is lower in melting point: 153 to 155 °C for the first, 139 to 140 °C for the second.

First: CCC(=O)OC1(C(=O)CO)CCC2C3CC(C)C4=CC(=O)CCC4(C)C3C(O)CC21C (centres undefined)
Second: CCCCCC1(O)CCC2(C)C(CCC3C4CCC(C5(C)OCCO5)C4(C)CC(=O)C32)C1 (centres undefined)
The melting point of the first is higher: 197 °C for the first, 106 °C for the second.

First: CCOC(=O)c1ccc(Cc2nc3n(-c4c(Cl)cc(Cl)cc4Cl)[nH]c(C(C)C)c-3c(=O)n2)cc1
Second: CCOC(=O)c1c(CN(CC)CC)nc2cc(OC)c(OC)cc2c1-c1ccc(Cl)cc1
The melting point of the first is higher: 233 to 235 °C for the first, 82 to 83 °C for the second.

First: COc1cc(NP(=O)(OC)OC)ccc1NC(=O)OCc1ccccc1
Second: O=C(O)C(=O)c1ccc(OCc2ccccc2)cc1
The melting point of the first is higher: 115 °C for the first, 97 to 98 °C for the second.

Going from O=c1cccccc1S to c1ccc(-c2ccon2)cc1, the melting point rises from 55 °C to 75 °C.

First: CCCc1c(OCCCSc2ccc(C(=O)O)cn2)ccc(C(C)=O)c1O
Second: O=C(O)C(=O)c1ccc(OCCOc2cc3ccccc3cc2O)cc1
The melting point of the first is lower: 145 to 147 °C for the first, 191 to 192 °C for the second.

First: NOC(=O)C(=C(C(=O)C(F)(F)F)c1ccccc1)c1ccccc1
Second: O=C(O)Cc1onc(-c2ccccc2)c1-c1ccccc1
The melting point of the first is higher: 175 °C for the first, 153 to 157 °C for the second.

Compared with Fc1ccc(-c2nc3ccccc3nc2-c2ccc(F)cc2)cc1, COc1ccc(-c2cnc(-c3ccc(F)cc3)nc2-c2ccc(OC)cc2)cc1 is lower in melting point: 132 °C for the first, 129 to 130 °C for the second.

First: Cn1cncc1C(c1cccs1)c1cccs1
Second: O=C(NCc1ccccn1)Nc1nc(C(=O)O)cs1
The melting point of the first is lower: 78.5 to 80 °C for the first, 220 °C for the second.

First: CC(C)(Cl)C(CCn1ccnc1[N+](=O)[O-])N=O (centres undefined)
Second: O=[N+]([O-])c1ccc(CCn2cccn2)cc1
The melting point of the first is higher: 96 to 97 °C for the first, 92 to 93 °C for the second.

First: c1ccc(-c2cn(-c3ncc(C4CCCCC4)c4ccccc34)cn2)cc1
Second: Cc1cccc2c(CCN3CCCCC3)c(-c3ccccc3)[nH]c12
The melting point of the first is higher: 169 to 170 °C for the first, 159 to 161 °C for the second.

Compared with CCCCC1=NC2(CCCC2)C(=O)N1Cc1ccc(-c2ccccc2S(=O)(=O)Nc2noc(C)c2C)c(COCCF)c1, Cc1ccccc1S(=O)(=O)NC(=O)c1ccc2c(ccn2Cc2cccc(NC(=O)OC3CCCC3)c2)c1 is higher in melting point: 68 to 73 °C for the first, 188 to 190 °C for the second.

First: CN1C(C)(C)CC(OP2OCC3(CO2)COP(OC2CC(C)(C)N(C)C(C)(C)C2)OC3)CC1(C)C (centres undefined)
Second: CCCCNC(=O)ON1C(C)(C)CC(OC(=O)c2cccc(C(=O)OC3CC(C)(C)N(OC(=O)NCCCC)C(C)(C)C3)c2)CC1(C)C
The melting point of the first is lower: 106 °C for the first, 176 to 177 °C for the second.

First: COc1ccccc1-c1[nH]nc2c1C(=O)c1c(NC(C)=O)cccc1-2
Second: CCOC(=O)C1=C(C)Nc2n[nH]cc2C1c1ccccc1OC (centres undefined)
The melting point of the first is higher: 276 °C for the first, 196 to 200 °C for the second.

Compared with CCNC(=O)c1cc(N)ccc1[Si](C)(C)C, NC(=O)COc1cccc(N)c1 is lower in melting point: 143 to 145 °C for the first, 107 to 111 °C for the second.

Compared with CCOC(=O)c1csc(N2CCOC2=O)n1, CCOC(=O)c1cccc(-c2ccc3c(c2)C(=O)CCC3)c1 is lower in melting point: 157 to 159 °C for the first, 89 to 90 °C for the second.

Compared with NC(=O)CNC(=O)CN1CC(O)CC1=O (centres undefined), O=C(Cc1cc(F)cc(F)c1)NCC(=O)N[C@@H]1C(=O)Nc2ccccc2S[C@@H]1c1ccccc1 is lower in melting point: 158 to 160 °C for the first, 125 to 130 °C for the second.

Compared with Cc1c(C)c(O)c([Si](C)(C)C)c(C#C[Si](C)(C)C)c1O, COC(=O)c1ccccc1S(=O)(=O)NC(=O)Nc1ncc(C)n(C)c1=O is higher in melting point: 76 to 77 °C for the first, 192 to 193 °C for the second.

First: COc1ccc(N2CCOCC2)c2sc(C(=O)NCC(=O)c3cccs3)nc12
Second: O=C(OCc1cc(-c2ccccc2)c(=O)n2c1-c1sccc1CC2)N1CCOCC1
The melting point of the first is higher: 165 °C for the first, 163 to 164 °C for the second.

Compared with CC(C#CC1CC(Oc2ccc(OC(F)(F)F)cc2)C1)N(O)C(N)=O (single isomer, unassigned; (+)), CNC(=O)c1cc(-c2ccc(OC)cc2)nn(CC2CC2)c1=O is higher in melting point: 103 to 105 °C for the first, 137 to 138 °C for the second.

First: CCCCC[C@H]1CC[C@H](c2ncc(O)cn2)CC1
Second: CCCc1cc(N2CCN(c3ccncc3)CC2)ccc1OCCCC(=O)OCC
The melting point of the first is higher: 190 to 191 °C for the first, 65 to 67 °C for the second.

Compared with CCOC(=O)CCc1c(OC)cncc1OC, CC(C)(C)Sc1ccc(CC=CN(O)C(N)=O)s1 is higher in melting point: 66 to 67 °C for the first, 111 to 113 °C for the second.

First: CC1(C)CC(=C(c2ccc(O)cc2)c2ccc(CCCO)cc2)CC(C)(C)C1
Second: CC1(C)CCC(C)(C)c2cc(C(C(=O)O)C(=O)Nc3ccc(C(=O)O)cc3)ccc21 (centres undefined)
The melting point of the first is lower: 160 to 161 °C for the first, 213 to 214 °C for the second.

First: CSCC1Cc2cc(C)c3[nH]c(=O)ccc3c2O1 (centres undefined)
Second: Cc1cc2c(cc1C)C(=O)C(CN1CCC3(CC1)C(=O)NCN3c1ccccc1)CC2 (centres undefined)
The melting point of the first is higher: 203 to 206 °C for the first, 182 to 183 °C for the second.

Compared with COc1ccccc1CNc1ccc2cc(Nc3nc(C)cc(C)n3)ccc2n1, CC(C)(C(=O)O)c1nnc2ccc(NCCCN3CCC(OC(c4ccccc4)c4ccccc4)CC3)nn12 is lower in melting point: 158 °C for the first, 155 to 157 °C for the second.

First: O=C(O)C1CCCc2c(n(Cc3ccc(Cl)cc3)c3ccc(F)cc23)C1 (centres undefined)
Second: CCn1cc(C(=O)O)c(=O)c2cc(F)c(N3CCN(S(=O)(=O)c4ccc(Cl)cc4)CC3)c(F)c21
The melting point of the first is lower: 185 to 186 °C for the first, 231 to 233 °C for the second.

First: Cc1cc(-c2cc(C(F)(F)F)n3ncc(-c4nc(-c5cnc(N)nc5)no4)c3n2)ccc1C(F)(F)F
Second: Cc1c(NC(=O)c2ccc(-c3ccc(F)cc3)cc2)ccc2cc(CN3CCCC3)cnc12
The melting point of the first is higher: 272 °C for the first, 220 to 222 °C for the second.

First: COc1ccc(-c2ccc(C(=O)NCCOc3ccc(CC(Oc4ccc(C(C)C)cc4)C(=O)O)cc3)cn2)cc1 (centres undefined)
Second: OC1(c2ccc(Cl)cc2)CN(C(c2ccccc2)c2ccccc2)C1
The melting point of the first is higher: 166 to 167 °C for the first, 108 °C for the second.

Compared with CC(=O)Nc1ccc(S(=O)(=O)Nc2nncs2)cc1, CCC(=S)c1ccc(NS(C)(=O)=O)c(Oc2ccc(F)cc2F)c1 is lower in melting point: 214 to 215 °C for the first, 74 to 76 °C for the second.

First: COc1cc(Cl)cc2c1CCC2
Second: CC(C#N)c1c(Cl)cc([N+](=O)[O-])cc1Cl (centres undefined)
The melting point of the first is lower: 38 to 40 °C for the first, 72 °C for the second.

First: CN(Cc1cccc2c1C(=O)N(C1CCC(=O)NC1=O)C2=O)C(=O)Nc1ccc(Cl)cc1 (centres undefined)
Second: O=C1N(Cc2ccc(=O)[nH]c2)c2ccccc2C12COc1cc3c(cc12)OCCO3 (centres undefined)
The melting point of the first is higher: 279 to 281 °C for the first, 249 to 250 °C for the second.

First: O=C1CC2(CC=CC2)CC(=O)N1
Second: CN1CC[C@]2(c3ccccc3)CCCC[C@@]2(O)C1 (relative stereo)
The melting point of the first is higher: 150 to 153 °C for the first, 84 to 87 °C for the second.

Cc1cc(NC(=O)C(=O)N2C(C)COCC2C)cc(C)c1S(=O)(=O)C[N+](=O)[O-] (centres undefined) showed a melting point of 140 to 141 °C.
